This is an account of results in patent publication US5130307A, “Aminoesters of rapamycin” (American Home Products Corporation, priority 1991, dated 1992).

The test system of experiment [1] is transplant rejection. Particulars: cited from earlier work.
Experiment [2] relates to popliteal lymph node. The experiment can be described thus: popliteal lymph node (PLN) test procedure, in vivo mixed lymphocyte reaction. Set-up: species or system C3H mice (BALB/c donors). As to the method: (§1) Immunosuppressive activity was evaluated in an in vitro standard pharmacological test procedure to measure lymphocyte proliferation (LAF) and in two in vivo standard pharmacological test procedures. The first in vivo procedure was a popliteal lymph node (PLN) test procedure which measured the effect of compounds of this invention on a mixed lymphocyte reaction and the second in vivo procedure evaluated the survival time of a pinch skin graft.
A mixed lymphocyte reaction (MLR) occurs when lymphoid cells from genetically distinct animals are combined in tissue culture. Each stimulates the other to undergo blast transformation which results in increased DNA synthesis that can be quantified by the incorporation of tritiated thymidine. Since stimulating a MLR is a function of disparity at Major Histocompatibility antigens, an in vivo popliteal lymph node (PLN) test procedure closely correlates to host vs. graft disease. Briefly, irradiated spleen cells from BALB/c donors are injected into the right hind foot pad of recipient C3H mice. The drug is given daily, p.o. from Day 0 to Day 4. On Day 3 and Day 4, tritiated thymidine is given i.p., b.i.d. On Day 5, the hind popliteal lymph nodes are removed and dissolved, and radioactivity counted. […] Percent suppression is calculated using the non-drug treated animals as allogenic control. […]

Experiment [3] relates to Candida albicans ATCC 38248. The experiment can be described thus: antifungal plate test, MIC. The class given is cell-based. The following applies: ATCC38248. The protocol: (§2) The following represents the typical procedure used. Compound to be tested was placed on sterile dried 1/4" plate disks, and allowed to dry. Agar plates were seeded with fungi and allowed to solidify. The impregnated disks were placed on the seeded Agar surface and incubated for the time required for the particular culture. Results are expressed in MIC (μg/ml) to inhibit growth.

For experiment [4], the system named is Candida albicans ATCC 10231. The experiment can be described thus: antifungal plate test, MIC. The class given is cell-based. The following applies: ATCC10231. As to the method:
as §2

Experiment [5] concerns Candida albicans ATCC 38247. Description: antifungal plate test, MIC. The class given is cell-based. The following applies: ATCC38247. As to the method:
as §2

Experiment [6] deals with Candida albicans 3669. Description: antifungal plate test, MIC. The class given is cell-based. The protocol: as §2
In experiment [7] the test system is Candida albicans ATCC 38246. Description: antifungal plate test, MIC. The class given is cell-based. The following applies: ATCC38246. As to the method:
as §2

For experiment [8], the system named is pinch skin graft from male DBA/2 donors transplanted to male BALB/c recipients. Description: survival time of pinch skin graft. The class given is in vivo. The following applies: for Skin Graft (days + SD), mean graft survival time: intraperitoneally. As to the method: as §1
The second in vivo test procedure is designed to determine the survival time of pinch skin graft from male DBA/2 donors transplanted to male BALB/c recipients. The method is adapted from Billingham R.E. and Medawar P.B., J. Exp. Biol. 28:385-402, (1951). Briefly, a pinch skin graft from the donor is grafted on the dorsum of the recipient as a homograft, and an autograft is used as control in the same region. […] Untreated recipients serve as rejection control. The graft is monitored daily and observations are recorded until the graft becomes dry and forms a blackened scab. This is considered as the rejection day. The mean graft survival time (number of days ±S.D.) of the drug treatment group is compared with the control group.

Experiment [9] deals with experimental allergic encephalomyelitis. Particulars: in vivo; cited from earlier work.
Experiment [10] concerns IgE-like antibodies. Particulars: cited from earlier work.
The conditions of experiment [11]: alone or in combination with picibanil; cited from earlier work.
For experiment [12], the system named is Candida albicans. Particulars: in vitro and in vivo; cited from earlier work.

Converted amounts (≈) assume the structure as drawn. Some results are limits rather than exact numbers.

`C=CC[C@@H]1/C=C(\C)C[C@H](C)C[C@H](OC)[C@H]2O[C@@](O)(C(=O)C(=O)N3CCCC[C@H]3C(=O)O[C@H](/C(C)=C/[C@@H]3CC[C@@H](O)[C@H](OC)C3)[C@H](C)[C@@H](O)CC1=O)[C@H](C)C[C@@H]2OC` [FK-506]: the “inhibition of transplant rejection / immunosuppressive effect (in words)” value in [1] is listed as “effective as immunosuppressive agents”.

For the compound `CO[C@H]1C[C@@H]2CC[C@@H](C)[C@@](O)(O2)C(=O)C(=O)N2CCCC[C@H]2C(=O)O[C@H]([C@H](C)C[C@@H]2CC[C@@H](OC(=O)[C@H](CCCCNC(=O)OC(C)(C)C)NC(=O)OC(C)(C)C)[C@H](OC)C2)CC(=O)[C@H](C)/C=C(\C)[C@@H](O)[C@@H](OC)C(=O)[C@H](C)C[C@H](C)/C=C/C=C/C=C/1C` [Example 12, Rapamycin-42-ester with N^α, N^ε -bis[(1,1-dimethylethoxy)carbonyl]-L-lysine], the “effect on T cell proliferation in PLN (in words)” value in [2] (negative ratio) was “may cause T cell proliferation in the PLN test procedure”. The MIC was 0.2 µg/mL (≈ 0.161 µM) in [3]; 0.2 µg/mL (≈ 0.161 µM) in experiment [4]; 0.1 µg/mL (≈ 0.0805 µM) in [5]; 0.4 µg/mL (≈ 0.322 µM) in experiment [6]; greater than 0.4 µg/mL in experiment [7]. Further, the “Skin Graft (days + SD), mean graft survival time” value (“Skin Graft (days + SD)” below) in experiment [8] turned out to be 12.0 ± 2.0 days. In experiment [8] (untreated grafts typically rejected within 6-7 days), the “survival time of the skin graft (in words)” value is reported as “increased survival time observed in the skin graft test procedure”.

As to `CO[C@H]1C[C@@H]2CC[C@@H](C)[C@@](O)(O2)C(=O)C(=O)N2CCCC[C@H]2C(=O)O[C@H]([C@H](C)C[C@@H]2CC[C@@H](OC(=O)[C@H](CCC(=O)OC(C)(C)C)NC(=O)OC(C)(C)C)[C@H](OC)C2)CC(=O)[C@H](C)/C=C(\C)[C@@H](OC(=O)[C@H](CCC(=O)OC(C)(C)C)NC(=O)OC(C)(C)C)[C@@H](OC)C(=O)[C@H](C)C[C@H](C)/C=C/C=C/C=C/1C` [Example 5, Rapamycin-31,42-diester with 5-(1,1-dimethylethoxy)-2-[[(1,1-dimethylethoxy)carbonyl]amino]-5-oxopentanoic acid], the MIC in experiment [3], in experiment [4], in experiment [5], in experiment [6] and in experiment [7] was greater than 0.4 µg/mL in each case. In addition, the “Skin Graft (days + SD)” value in experiment [8] turned out to be 8.8 ± 0.9 days.

In the case of `CO[C@H]1C[C@@H]2CC[C@@H](C)[C@@](O)(O2)C(=O)C(=O)N2CCCC[C@H]2C(=O)O[C@H]([C@H](C)C[C@@H]2CC[C@@H](O)[C@H](OC)C2)CC(=O)[C@H](C)/C=C(\C)[C@@H](O)[C@@H](OC)C(=O)[C@H](C)C[C@H](C)/C=C/C=C/C=C/1C` [Rapamycin], the “effectiveness in experimental allergic encephalomyelitis model (in words)” value in [9] is on record as “effective in the experimental allergic encephalomyelitis model”. For the same compound, the “PLN (ratio)” value in experiment [2] (p.o. daily Day 0 to Day 4, ratio, rapamycin 1.0) is 1.0. In addition, in experiment [1], the “inhibition of transplant rejection / immunosuppressive effect (in words)” value is reported as “effective in inhibiting transplant rejection”. Besides, the “inhibition of the formation of IgE-like antibodies (in words)” value in [10] is reported as “effectively inhibited the formation of IgE-like antibodies”. For the same compound, the “antitumor activity (in words)” value in [11] is “has been shown to have antitumor activity”. In addition, the “Skin Graft (days + SD)” value in experiment [8] was found to be 12.0 ± 1.7 days. The “antifungal activity (in words)” value in experiment [12] was “antifungal activity, particularly against Candida albicans, both in vitro and in vivo”.

Usually MIC stands for the smallest concentration in the dilution series that meets the test's criterion for growth inhibition. Higher therefore signals weaker potency.
